EC50 data for 2 molecules are collected here from patent US20020132802A1, “Cytoprotective polycyclic compounds” (Washington Univeristy, priority 2000, published 2002).

For the experiment, the system named is HT-22 cells. The experiment can be described thus: HT-22 Cell Neuroprotection Assay (glutamate-induced cell death, calcein AM viability). The class given is cell-based, murine. Particulars: about 16 h exposure. Here is the method:
Method: HT-22 Cell Neuroprotection Assay
HT-22 cells (immortalized hippocampal neurons of murine origin) were maintained in DMEM media (Life Technologies, Inc., Gaitherburg, Md.) supplemented with 10% charcoal-stripped FBS (HyClone Laboratories, Inc., Logan, Utah) and 20 μg/mL gentamycin, according to standard culture conditions.
Cells were plated at a density of 5,000 cells/well in clear-bottomed Nunc 96-well plates (Fisher Scientific, Orlando, Fla.) and allowed to incubate overnight. Steroids dissolved in DMSO were added at concentrations ranging from 0.01-10 μM and were co-administered with glutamate (10 mM or 20 mM). DMSO was used at concentrations of 0.1% vol/vol as a vehicle control and had no discernible effect on cell viability. After about 16 h of glutamate exposure, cells were rinsed with PBS, pH 7.4, and viability was assessed by the addition of 25 μM calcein AM (Molecular Probes, Inc., Eugene, Oreg.) in PBS for 15 min at room temperature. Fluorescence was determined (excitation 485 nm, emission 530 nm) using a fluorescence FL600 microplate reader (Biotek, Winooski, Vt.). Cells that were lysed by addition of methanol were used for blank readings. All data were normalized to % cell death, as calculated by (control value −insult value)/control value×100.

Like-named read-outs stand apart in the source and are kept apart here.

In the case of `C[C@@]12CC=C3c4ccc(O)cc4CC[C@@H]3[C@H]1CC[C@H]2O` [ZYC-12], the EC50 reads like this: (co-administered with 10 mM glutamate, read-out: Steroid concentration needed to protect 50% of neurons killed by 10 mM Glutamate ED50) 530 nM; (co-administered with 20 mM glutamate, read-out: Steroid concentration needed to protect 50% of neurons killed by 20 mM Glutamate ED50) 1430 nM. As to `C[C@]12CC[C@@H]3c4ccc(O)cc4CC[C@H]3[C@@H]1CCC2=O` [Estrone, estrone, reference compound], the EC50 (Mus musculus, co-administered with 10 mM glutamate, read-out: Steroid concentration needed to protect 50% of neurons killed by 10 mM Glutamate ED50) is 3030 nM.
